Tests used:
[1] = test system: reconstructed epidermis; experiment: Morphology of reconstructed epidermis in tired condition (rotenone), haematoxylin-eosin staining; assay type: cell-based, human; details: rotenone added on day 12 of reconstruction, 3 h incubation
Text: The aim of this study is to create a model of reconstructed “tired” human skin. To do this, the skin is reconstructed using adult donor keratinocytes and a respiratory chain inhibitor (rotenone) to create a lack of energy.
The use of a respiratory chain inhibitor such as rotenone creates mitochondrial dysfunction, including ATP depletion. Therefore, lack of cellular energy was equated in our model to a state of cellular fatigue (Han G et al, The mitochondrial complex I inhibitor rotenone induces endoplasmic reticulum stress and activation of GSK-3β in cultured rat retinal cells, Invest Ophthalmol Vis Sci. 31; 55(9):5616-28, 2014). These cultures are treated during the reconstruction with 0.1% E1 Myrciaria extract (volume/volume), i.e. diluted 1/1000th or 1% (volume/volume), i.e. diluted 1/100th in the culture medium.
Protocol: On day 12 of epidermal reconstruction, rotenone is added to the culture medium. A control condition is maintained without adding rotenone but changing the culture medium anyway. After 3 h incubation with the inhibitor, the medium is changed to a new medium containing 0.1% E1 Myrciaria extract and the epidermis is incubated again for 48 h. The placebo condition contains PBS (phosphate buffer saline) in the culture medium. The morphology of the skin is then observed by a Haematoxylin-Eosin (HE) staining. […]

[2] = test system: PFKFB3 (6-phosphofructo-2-kinase/fructose-2,6-biphosphatase 3); experiment: PFKFB3 expression on reconstructed epidermis in tired condition (immunofluorescence); assay type: cell-based, human; details: rotenone alone
Text: The aim of this study is to determine the level of expression of PFKFB3 (6-phosphofructo-2-kinase/fructose-2,6-biphosphatase 3) in a model of “tired” reconstructed human skin.
PFKFB3 is involved in the glycolysis process. It is an inducible enzyme that is expressed by the active epithelial cells of the epidermis. It enables the activation of the enzyme PFK-1 (phosphofructokinase-1), which limits this glycolysis process.
To obtain “tired” skin, this is reconstructed using adult donor keratinocytes and a respiratory chain inhibitor (rotenone) to create a lack of energy (see example 6). These cultures are treated during reconstruction with 0.1% E1 Myrciaria extract (volume/volume), i.e. diluted 1/1000th in the culture medium.
Protocol: On day 12 of epidermal reconstruction, rotenone is added to the culture medium. A control condition is maintained without adding rotenone but changing the culture medium anyway. After 3 h incubation with the inhibitor, the medium is changed to a new medium containing 0.1% E1 Myrciaria extract and the epidermises are incubated again for 48 h. […]
For staining, the cuts are dewaxed by xylene and ethanol baths and then rinsed. […] The cuts are then examined under an Epi-fluorescence microscope (Zeiss Axiovert 200M microscope). A quantification of the fluorescence, using Volocity® image analysis software (PerkinElmer, Inc.), is performed from the obtained photographs.

[3] = test system: creatine kinase; experiment: Creatine kinase activity on "tired" dermal fibroblast cultures; assay type: cell-based; details: 0.1% E1 extract or vitamin C at 4 μg/mL, two days of treatment
Experimental: The aim of this study is to determine the level of creatine kinase activity in dermal fibroblast cultures. The function of this enzyme is to catalyse the conversion of creatine to phosphocreatine, thus providing a rapidly usable energy reserve. This activity measurement is performed on cultures of “tired” dermal fibroblasts treated with 0.1% E1 Myrciaria extract (volume/volume), i.e. diluted 1/1000th in the culture medium. Protocol: Dermal fibroblast cultures are “tired” by a few replications (cells used between passes 15 and 20) and are fed with a nutrient-poor medium (without glucose) for 3 days. These cultures are treated with 0.1% E1 Myrciaria extract, or with vitamin C at 4 μg/mL as a positive control, from the second day of stress and for the remaining two days of stress. Two days after the start of treatment, a measurement of creatine kinase activity is performed using a kit (Abcam—ref: ab155901). For this purpose, the fibroblasts are detached with the CK buffer contained in the kit, recovered and centrifuged at 4000 g for 5 min at 4° C. The activity is then measured for each sample according to the kit protocol. Kinetics are obtained by a colorimetric reading with the Synergy 2 spectrometer (Biotek) coupled to Gen5 software.

With C=C(C)[C@H]1Cc2c(ccc3c2O[C@@H]2COc4cc(OC)c(OC)cc4[C@@H]2C3=O)O1 [rotenone] the “morphology of reconstructed epidermis versus control (HE staining)” value [1] was “thinner epidermis than the control and a more damaged basal layer” and the “PFKFB3 expression change compared to unstressed epidermises” value [2] was −20%.

For O=C1O[C@H]([C@@H](O)CO)C(O)=C1O [vitamin C], the “creatine kinase activity increase compared to untreated "tired" cells” value [3] was “+44%”.
